Series [1] addresses T1, P2X purinoceptor 3 (Rattus norvegicus, UniProt P49654).
T1 sequence (P49654 whole entry): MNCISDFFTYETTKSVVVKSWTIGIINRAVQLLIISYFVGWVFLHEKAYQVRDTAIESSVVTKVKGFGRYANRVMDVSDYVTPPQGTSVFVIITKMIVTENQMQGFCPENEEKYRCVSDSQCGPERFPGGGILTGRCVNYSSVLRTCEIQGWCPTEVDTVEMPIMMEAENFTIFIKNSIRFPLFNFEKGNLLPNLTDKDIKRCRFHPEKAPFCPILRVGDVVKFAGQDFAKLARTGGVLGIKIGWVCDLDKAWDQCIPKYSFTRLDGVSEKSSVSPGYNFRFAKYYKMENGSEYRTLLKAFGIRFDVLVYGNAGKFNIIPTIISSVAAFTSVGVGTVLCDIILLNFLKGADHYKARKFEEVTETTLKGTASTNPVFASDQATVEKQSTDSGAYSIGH
Put plainly: Antagonist activity at rat P2X3 receptor.

Series [2] addresses T2, P2X purinoceptor 2 (Homo sapiens, UniProt Q9UBL9).
T2 sequence (Q9UBL9 whole entry): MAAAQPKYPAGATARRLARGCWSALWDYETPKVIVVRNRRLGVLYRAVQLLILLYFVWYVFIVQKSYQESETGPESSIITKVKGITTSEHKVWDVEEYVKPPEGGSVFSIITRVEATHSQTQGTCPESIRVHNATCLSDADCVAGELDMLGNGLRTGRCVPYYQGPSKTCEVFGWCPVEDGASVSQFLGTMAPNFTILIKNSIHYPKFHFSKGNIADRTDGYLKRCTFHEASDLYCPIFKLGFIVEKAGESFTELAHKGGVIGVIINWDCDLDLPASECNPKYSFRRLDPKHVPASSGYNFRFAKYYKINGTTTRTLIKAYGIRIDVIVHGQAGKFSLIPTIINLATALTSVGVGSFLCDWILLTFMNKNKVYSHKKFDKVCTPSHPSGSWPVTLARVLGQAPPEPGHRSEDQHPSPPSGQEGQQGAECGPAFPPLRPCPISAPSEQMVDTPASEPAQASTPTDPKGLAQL
The series can be described thus: Antagonist activity at P2X2 receptor (unknown origin).

A short description of series [3]: Protein binding in rat plasma assessed as unbound fraction at 1 mg/kg administered as cassette dose. Type of series: ADME, organism-based.

These results are taken from ChEMBL document CHEMBL5030545, “Discovery of clinical candidate Sivopixant (S-600918): Lead optimization of dioxotriazine derivatives as selective P2X3 receptor antagonists” (Bioorg Med Chem Lett, 2021).

Regarding `C[C@@H](Cn1c(=O)[nH]/c(=N\c2ccc(Oc3ccccn3)cc2)n(Cc2ccc(Cl)cc2)c1=O)C(=O)O`, the IC50 in series [1] is 4 nM; in series [2] it was over 30000 nM. In series [3], the fraction unbound turned out to be 0.01.
